Read-outs that look alike come from different tables or passages of the source.
Legend:
[1] = tested on: Salmonella typhimurium TA97a; test: Ames antimutagenicity assay (preincubation); conditions: for inhibition at 500 µM: Salmonella enterica, TYPHIMURIUM;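 as to all read-outs here: compound and mutagen preincubated together 30 min at 37 °C before adding bacteria, then plated on minimal glucose agar for 48 h and His+ revertant colonies counted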
Procedure: (§1) In the preincubation experiment, test compounds and mutagen, each having a volume of 0.1 mL of varying concentrations, were preincubated at 37°C for 30 min and then 0.1 mL of 1 × 10^7 CFU/mL density of the bacterial culture was added, followed by the addition of 2.5 mL of top agar at 45°C (containing 0.5% NaCl and 0.6% agar) supplemented with 0.5 mM histidine-biotin. […] The combined solutions were vortexed and poured onto minimal glucose plates (40% glucose solution and Vogel Bonner medium). The plates were incubated at 37°C for 48 h and the numbers of histidine-independent revertants colonies were scored.
(§2) Survival of the bacteria was routinely monitored for each experiment. Parallel controls were run with compounds alone at all concentrations to test the possible toxicity. The concentrations of the test samples for investigating the antimutagenicity were 50, 100, 200, and 500 μM. […] All the test samples and mutagens were dissolved in DMSO (final conc., 0.01%). […] Plates were set up in triplicate for each concentration and the entire experiment was repeated three times. Inhibition of mutagenicity was expressed as percentage decrease of reverse mutation and calculated as (1) Percent inhibition=[(a−b)/(a−c)]×100, where a = number of histidine revertants induced by mutagen, b = number of histidine revertants induced by mutagen in the presence of test compound, and c = number of revertants induced in negative control.

[2] = tested on: Salmonella typhimurium TA98; test: Ames antimutagenicity assay (preincubation); conditions: for inhibition at 50 µM / inhibition at 100 µM / inhibition at 250 µM / inhibition at 500 µM: Salmonella enterica, TYPHIMURIUM;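 as to all read-outs here: test compound and mutagen preincubated 30 min at 37°C before adding bacteria, then His+ revertant colonies counted after 48 h plating, inhibition relative to mutagen-only versus negative-control revertants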
Procedure: as §1, §2

[3] = tested on: Salmonella typhimurium TA97a; conditions: TA 97a
Procedure: as §1, §2

O=C1O[C@H]2[C@@H]3OC(=O)c4cc(O)c(O)c(O)c4-c4c(O)c(O)c5oc(=O)c6c(c(O)c(O)c7oc(=O)c4c5c76)-c4c(cc(O)c(O)c4O)C(=O)OC[C@H]3OC(O)[C@@H]2OC(=O)c2cc(O)c(O)c(O)c2-c2c1cc(O)c(O)c2O (mixture of isomers) [Punicalagin]
inhibition at 500 µM ([1]; read-out: % inhibition of mutagenicity, TA 97a, 500 μM + BP, S9): 76.7%
inhibition at 500 µM ([1]; read-out: % inhibition of mutagenicity, TA 97a, 500 μM + MMS, no S9): 72%
inhibition at 500 µM ([1]; read-out: % inhibition of mutagenicity, TA 97a, 500 μM + NaN3, no S9): 74.4%
Number of His+ revertants colonies/plate ([1]; TA 97a, 50 μM + 2AF, S9): 304.7 ± 19.8 colonies/plate
Number of His+ revertants colonies/plate ([1]; TA 97a, 50 μM + BP, S9): 645.3 ± 28.7 colonies/plate
Number of His+ revertants colonies/plate ([1]; TA 97a, 50 μM + MMS, no S9): 418.3 ± 11.7 colonies/plate
Number of His+ revertants colonies/plate ([1]; TA 97a, 50 μM + NaN3, no S9): 244.3 ± 6.7 colonies/plate
Number of His+ revertants colonies/plate ([1]; TA 97a, 100 μM + 2AF, S9): 270.3 ± 10.1 colonies/plate
Number of His+ revertants colonies/plate ([1]; TA 97a, 100 μM + BP, S9): 538.3 ± 28.9 colonies/plate
Number of His+ revertants colonies/plate ([1]; TA 97a, 100 μM + MMS, no S9): 390.7 ± 10.2 colonies/plate
Number of His+ revertants colonies/plate ([1]; TA 97a, 100 μM + NaN3, no S9): 221.0 ± 7.1 colonies/plate
Number of His+ revertants colonies/plate ([1]; TA 97a, 250 μM + BP, S9): 431.0 ± 18.4 colonies/plate
Number of His+ revertants colonies/plate ([1]; TA 97a, 250 μM + MMS, no S9): 326.0 ± 7.8 colonies/plate
Number of His+ revertants colonies/plate ([1]; TA 97a, 250 μM + NaN3, no S9): 202.3 ± 8.7 colonies/plate
Number of His+ revertants colonies/plate ([1]; TA 97a, 500 μM + 2AF, S9): 220.0 ± 9.3 colonies/plate
Number of His+ revertants colonies/plate ([1]; TA 97a, 500 μM + BP, S9): 316.0 ± 17.6 colonies/plate
Number of His+ revertants colonies/plate ([1]; TA 97a, 500 μM + MMS, no S9): 251.0 ± 9.0 colonies/plate
% inhibition of mutagenicity ([1]; TA 97a, 500 μM + MMS, no S9, 500 µM): 72.1%
Number of His+ revertants colonies/plate ([1]; TA 97a, 500 μM + MMS, no S9, listed as PC): 251 colonies/plate
Number of His+ revertants colonies/plate ([1]; TA 97a, 500 μM + NaN3, no S9): 195.0 ± 10.8 colonies/plate
inhibition at 50 µM ([2]; read-out: % inhibition of mutagenicity, TA 98, 50 μM + 2AF, S9): 20.5%
inhibition at 50 µM ([2]; read-out: % inhibition of mutagenicity, TA 98, 50 μM + BP, S9): 22.1%
inhibition at 50 µM ([2]; read-out: % inhibition of mutagenicity, TA 98, 50 μM + MMS, no S9): 29.4%
inhibition at 100 µM ([2]; read-out: % inhibition of mutagenicity, TA 98, 100 μM + 2AF, S9): 37.5%
inhibition at 100 µM ([2]; read-out: % inhibition of mutagenicity, TA 98, 100 μM + BP, S9): 46.6%
inhibition at 100 µM ([2]; read-out: % inhibition of mutagenicity, TA 98, 100 μM + MMS, no S9): 46.3%
inhibition at 100 µM ([2]; read-out: % inhibition of mutagenicity, TA 98, 100 μM + NaN3, no S9): 30%
inhibition at 250 µM ([2]; read-out: % inhibition of mutagenicity, TA 98, 250 μM + BP, S9): 74.8%
inhibition at 250 µM ([2]; read-out: % inhibition of mutagenicity, TA 98, 250 μM + MMS, no S9): 59.2%
inhibition at 250 µM ([2]; read-out: % inhibition of mutagenicity, TA 98, 250 μM + NaN3, no S9): 52.2%
inhibition at 500 µM ([2]; read-out: % inhibition of mutagenicity, TA 98, 500 μM + 2AF, S9): 81.4%
inhibition at 500 µM ([2]; read-out: % inhibition of mutagenicity, TA 98, 500 μM + BP, S9): 78.8%
inhibition at 500 µM ([2]; read-out: % inhibition of mutagenicity, TA 98, 500 μM + MMS, no S9): 71%
inhibition at 500 µM ([2]; read-out: % inhibition of mutagenicity, TA 98, 500 μM + NaN3, no S9): 65.3%
Number of His+ revertants colonies/plate ([2]; TA 98, 50 μM + 2AF, S9): 210.3 ± 10.7 colonies/plate
Number of His+ revertants colonies/plate ([2]; TA 98, 50 μM + BP, S9): 138.0 ± 8.7 colonies/plate
Number of His+ revertants colonies/plate ([2]; TA 98, 50 μM + MMS, no S9): 50.3 ± 1.8 colonies/plate
Number of His+ revertants colonies/plate ([2]; TA 98, 100 μM + 2AF, S9): 172.3 ± 12.0 colonies/plate
Number of His+ revertants colonies/plate ([2]; TA 98, 100 μM + BP, S9): 105.3 ± 9.0 colonies/plate
Number of His+ revertants colonies/plate ([2]; TA 98, 100 μM + MMS, no S9): 45.3 ± 2.0 colonies/plate
Number of His+ revertants colonies/plate ([2]; TA 98, 100 μM + NaN3, no S9): 47.3 ± 1.8 colonies/plate
Number of His+ revertants colonies/plate ([2]; TA 98, 250 μM + BP, S9): 65.0 ± 6.8 colonies/plate
Number of His+ revertants colonies/plate ([2]; TA 98, 250 μM + MMS, no S9): 39.7 ± 2.0 colonies/plate
Number of His+ revertants colonies/plate ([2]; TA 98, 250 μM + NaN3, no S9): 40.7 ± 2.6 colonies/plate
Number of His+ revertants colonies/plate ([2]; TA 98, 500 μM + 2AF, S9): 65.3 ± 4.1 colonies/plate
Number of His+ revertants colonies/plate ([2]; TA 98, 500 μM + BP, S9): 52.7 ± 4.3 colonies/plate
Number of His+ revertants colonies/plate ([2]; TA 98, 500 μM + MMS, no S9): 35.0 ± 2.1 colonies/plate
% inhibition of mutagenicity ([2]; TA 98, 500 μM + MMS, no S9, 500 µM): 70.9%
Number of His+ revertants colonies/plate ([2]; TA 98, 500 μM + NaN3, no S9): 36.0 ± 1.7 colonies/plate
Number of His+ revertants colonies/plate ([3]; 50 μM alone (negative control), 2AF tables): 132.3 ± 8.8 colonies/plate
Number of His+ revertants colonies/plate ([3]; 50 μM alone (negative control), BP tables): 132.3 ± 8.8 colonies/plate
Number of His+ revertants colonies/plate ([3]; 50 μM alone (negative control), MMS tables): 141.3 ± 5.2 colonies/plate
Number of His+ revertants colonies/plate ([3]; 50 μM alone (negative control), NaN3 tables): 141.3 ± 5.2 colonies/plate
Number of His+ revertants colonies/plate ([3]; 100 μM alone (negative control), 2AF tables): 158.0 ± 7.4 colonies/plate
Number of His+ revertants colonies/plate ([3]; 100 μM alone (negative control), BP tables): 158.0 ± 7.4 colonies/plate
Number of His+ revertants colonies/plate ([3]; 100 μM alone (negative control), MMS tables): 153.7 ± 9.2 colonies/plate
Number of His+ revertants colonies/plate ([3]; 100 μM alone (negative control), NaN3 tables): 153.7 ± 9.2 colonies/plate
Number of His+ revertants colonies/plate ([3]; 250 μM alone (negative control), 2AF tables): 165.7 ± 10.9 colonies/plate
Number of His+ revertants colonies/plate ([3]; 250 μM alone (negative control), BP tables): 165.7 ± 10.9 colonies/plate
Number of His+ revertants colonies/plate ([3]; 250 μM alone (negative control), MMS tables): 158.3 ± 7.1 colonies/plate
Number of His+ revertants colonies/plate ([3]; 250 μM alone (negative control), NaN3 tables): 158.3 ± 7.1 colonies/plate
Number of His+ revertants colonies/plate ([3]; 500 μM alone (negative control), 2AF tables): 188.0 ± 9.5 colonies/plate
Number of His+ revertants colonies/plate ([3]; 500 μM alone (negative control), BP tables): 188.0 ± 9.5 colonies/plate
Number of His+ revertants colonies/plate ([3]; 500 μM alone (negative control), MMS tables): 174.0 ± 6.4 colonies/plate
Number of His+ revertants colonies/plate ([3]; 500 μM alone (negative control), NaN3 tables): 174.0 ± 6.4 colonies/plate
